# Laboratory results reported in patent US5593678A, “Protection of teleost fish” (University of Georgia Research Foundation, priority 1994, dated 1997).
# Like-named read-outs stand apart in the source and are kept apart here.
# Assays:
# [1] = tested on: NCC from stressed fish (lysis of IM-9 target cells); settings: for Percent Specific Release (stressed fish): 100:1, control 0.9
# Experimental: (§1) A ^51 Cr release assay was used to determine cytotoxicity. Target cells at 1-2×10^6 cells/ml were labeled with 100 μCi of sodium chromate (Amersham, Arlington Heights, Ill.). NCC effector cells were treated as previously described [Evans et al. (1988) supra], centrifuged (500 g), and resuspended in media and added at different E:T ratios to the labeled target cells in round-bottomed 96-well microtiter plates. This mixture was incubated (25° C.) for 4-6 hours and 100 μl of each supernatant was removed to determine radioactivity (Beckman Biogamma II Counter; Beckman Instruments, Irvine, Calif.). The results are expressed as either percentage specific release (SR)=[(test release--spontaneous release)/(total release--spontaneous release)]×100; percent inhibition=[(percentage control SR--percentage test SR)/percentage control SR]×100; and percentage increase=(percentage test SR--percentage control SR)/percentage control SR.
# A common observation in fish exposed to stress, e.g., toxicants, drastic temperature changes, handling, etc., is the temporary loss of NCC activity.
# IM-9 target cells = tested on: IM-9 target cells
# Experimental: In further studies, NCC were treated with different concentrations of protein phosphatase inhibitors for two hours and labeled IM-9 target cells were added for a four-hour microcytotoxicity assay (Table 8). […] To determine if the activating effects of the protein phosphatase inhibitors were reversible, NCC were treated for 90 minutes with NaF and vanadate and then the inhibitors were removed prior to addition of the labeled target cells.
# [2] = tested on: phosphotidylinositol phosphate phosphatase; settings: cited from earlier work
# calcineurin = settings: cited from earlier work
# NCC = settings: relatively high concentrations
# [3] = tested on: NCC (lysis of IM-9 target cells); settings: for Percentage of control (NCC cytotoxic activity): 120 minutes; for effect of removal of inhibitor on NCC activation (words): 90 minutes treatment, washed, E:T 40:1
# Experimental: FIG. 4. Individual and combined effects of phosphatase inhibitors on NCC cytotoxicity, NCC (7×10^5 cells) were incubated with either media (.diamond.), vanadate (Δ) (5 mM). NaF (.smallcircle.) (20 mM), or both vanadate and NaF (.quadrature.) for the indicated time periods before addition to labeled IM-9 target cells.
# FIG. 5. Effects of removal of Na3 VO4 on NCC activation. NCC were harvested, incubated for three hours, washed, counted and added to duplicate tubes containing either media alone or media containing 2.5, 5 and 10 mM vanadate. Following a 90 minutes incubation time, the cells were either washed and resuspended in media (closed circles) or added directly (open circles) to wells containing ^51 chromium labeled IM-9 target cells (E:T ratio 40:1).
# FIG. 6. Effects of removal of NaF on NCC activation. NCC were harvested, incubated for three hours in media, washed, counted and added to duplicate tubes containing media alone or in the presence of 5, 10 and 20 mM NaF. Following a 90 minutes treatment time, NCC were either washed (closed circles) or added directly (open circles) to wells containing labeled IM-9 target cells (E:t ratio 40:1).
# FIG. 7. Effects of Na3 VO4 on NCC with different levels of cytotoxicity. NCC were harvested from anterior kidneys of fish from three different sources. The cells were incubated in media for three hours, washed, counted and added to test tubes containing either media alone or media with 2.5, 5 and 10 mM vanadate. Following a two hours incubation time, the effectors were added to wells containing labeled IM-9 cells at a 40:1 E:T ratio.
# FIG. 8. Effects of NaF on NCC with different levels of cytotoxicity. NCC were harvested from anterior kidneys of fish from three different sources. The cells were incubated in media for three hours, washed, counted and added to media or media with 5, 10 and 20 mM NaF. Following a two-hour incubation, NCC were added to wells containing ^51 chromium labeled IM-9 target cells for a final E:T ratio of 40:1.
# as §1
# NCC were obtained as previously described [Graves et al. (1984) supra]; Evans et al. (1984) supra]. […] NCC were then washed and resuspended at 20×10^6 cells/ml, and 35 μl aliquots were added to test tubes containing 315 μl media only (media control) or media containing the indicated treatments. After 2 hr incubation, the cells were mixed with ^51 Cr-labeled IM-9 target cells and incubated for 4-6 hours ([…]). Supernatants were harvested and cytotoxicity levels were calculated as previously described.
# Membrane phosphorylation is maintained through a delicate equilibrium between cellular kinase and phosphatase activities.
# In further studies, NCC were treated with different concentrations of protein phosphatase inhibitors for two hours and labeled IM-9 target cells were added for a four-hour microcytotoxicity assay (Table 8).
# CRC cells = experiment: Lytic activity of CRC cells (rat leukemic NK cells); format: cell-based, rat (F344)
# Source text: The present invention relates to the relevance of protein phosphatase inhibitors to the protection of other species and other types of natural killer cells. For example, the CRC cells (tissue cultured cells obtained from peripheral blood of leukemic F344 rats) are perhaps more interesting (e.g., another model to study the effects of vanadate on altering immunosuppressed NK function) because these are in vitro maintained rat leukemic NK cells which have spontaneously lost cytotoxicity against YAC-1 target cells. […] It is possible that the discovery of this activity of protein phosphatase inhibitors may have widespread importance for studies of mechanisms of signaling in all vertebrates. Additionally, these inhibitors may have clinical importance in circumstances of immunosuppression, immunodeficiency and other conditions of altered immune activity.
# [4] = tested on: human prostate gland phosphotyrosyl protein phosphatase; settings: cited from earlier work
# protein phosphatase = settings: cited from earlier work
smiles,measurement,setting,value
"[Cl-].[Li+] [Lithium chloride, lithium chloride]","effect on cytotoxicity, stressed fish",[1],no effects on cytotoxicity
same,toxicity to labeled IM-9 targets,IM-9 target cells,not toxic
same,phosphotidylinositol phosphate phosphatase activity,[2],specifically inhibited
"[F-].[Na+] [Sodium fluoride, sodium fluoride]",Percent Specific Release (stressed fish),[1]; NaF 5 mM,1.4%
same,Percent Specific Release (stressed fish),[1]; NaF 10 mM,4.4%
same,Percent Specific Release (stressed fish),[1]; NaF 20 mM,22.0%
same,calcineurin-mediated dephosphorylation,calcineurin,"fluoride, but not vanadate inhibited"
same,toxicity to NCC,NCC,not toxic to NCC
same,"cytotoxicity in presence of inhibitor, normal NCC",[3],significant increased cytotoxicity
same,effect on NCC cytotoxicity,[3],activated the cytotoxicity of NCC
same,Percentage of control (NCC cytotoxic activity),"[3]; 5 mM, E:T 25:1",210.3%
same,Percentage of control (NCC cytotoxic activity),"[3]; 5 mM, E:T 50:1",136.9%
same,Percentage of control (NCC cytotoxic activity),"[3]; 5 mM, E:T 100:1",123.2%
same,Percent Specific Release,"[3]; 5 mM, E:T 10, media 39",48%
same,Percent Specific Release,"[3]; 5 mM, E:T 25, media 4",9%
same,Percent Specific Release,"[3]; 5 mM, E:T 50, media 21",29%
same,Percentage of control (NCC cytotoxic activity),"[3]; 10 mM, E:T 25:1",333.3%
same,Percentage of control (NCC cytotoxic activity),"[3]; 10 mM, E:T 50:1",183.9%
same,Percentage of control (NCC cytotoxic activity),"[3]; 10 mM, E:T 100:1",153.7%
same,Percent Specific Release,"[3]; 10 mM, E:T 10, media 39",60%
same,Percent Specific Release,"[3]; 10 mM, E:T 25, media 4",14%
same,Percent Specific Release,"[3]; 10 mM, E:T 50, media 21",39%
same,Percentage of control (NCC cytotoxic activity),"[3]; 20 mM, E:T 25:1",635.3%
same,Percentage of control (NCC cytotoxic activity),"[3]; 20 mM, E:T 100:1",157.3%
same,Percent Specific Release,"[3]; 20 mM, E:T 10, media 39",61%
same,Percent Specific Release,"[3]; 20 mM, E:T 25, media 4",28%
same,Percent Specific Release,"[3]; 20 mM, E:T 50, media 21",49%
same,effect of removal of inhibitor on NCC activation (words),[3]; listed as NaF,almost completely obliterated activation
same,effect of removal of inhibitor on NCC activation (words),[3]; listed as fluoride,almost completely obliterated NCC activation
same,effect of removal of inhibitor on NCC activation (words),[3]; listed as sodium fluoride,lost
same,increase in the lytic activity of CRC cells,CRC cells,3 -fold
same,toxicity to labeled IM-9 targets,IM-9 target cells; 20 mM,not toxic
same,human prostate gland phosphotyrosyl protein phosphatase,[4],"fluoride, but not vanadate inhibited human prostate gland phosphotyrosyl protein phosphatase"
same,protein phosphatase activity,protein phosphatase,vanadate but not fluoride inhibited protein phosphatase activity
